The values below come from ChEMBL document CHEMBL1144970, “Protective effects of steroid saponins from Paris polyphylla var. yunnanensis on ethanol- or indomethacin-induced gastric mucosal lesions in rats: structural requirement for activity and mode of action” (Bioorg Med Chem Lett, 2003).

The test system of data set [1] is Rattus norvegicus. The data set can be described thus: Percent inhibition of gastric lesions induced by ethanol was measured, after administration of 10 mg/kg po in rats. Conditions: Stomach. It counts as functional.
Data set [2] relates to Rattus norvegicus. The data set can be described thus: Reduction in length (control value = 54.6+/-16.5) of gastric lesions induced by endomethacin was measured, after administration of 10 mg/kg po in rats. It counts as functional, Stomach.
Data set [3] concerns Rattus norvegicus. In words: Percent inhibition of gastric lesions induced by endomethacin was measured, after administration of 10 mg/kg po in rats. Conditions: Stomach. It counts as functional.
Data set [4] relates to Rattus norvegicus. In words: Reduction in length (control value = 107+/-14.5) of gastric lesions induced by ethanol was measured, after administration of 2.5 mg/kg po in rats. Type of data set: functional, Stomach.
Data set [5] has as its system Rattus norvegicus. In words: Reduction in length (control value = 88.9+/-5.5) of gastric lesions induced by endomethacin was measured, after administration of 5 mg/kg po in rats. Type of data set: functional, Stomach.
For data set [6], the system named is Rattus norvegicus. In words: Percent inhibition of gastric lesions induced by endomethacin was measured, after administration of 5 mg/kg po in rats. It counts as functional. As to conditions: Stomach.
Data set [7] relates to Rattus norvegicus. The data set can be described thus: Percent inhibition of gastric lesions induced by ethanol was measured, after administration of 2.5 mg/kg po in rats. Type of data set: functional. Conditions: Stomach.
The test system of data set [8] is Rattus norvegicus. The data set can be described thus: Percent inhibition of gastric lesions induced by ethanol was measured, after administration of 5 mg/kg po in rats. It counts as functional. Conditions: Stomach.
For data set [9], the system named is Rattus norvegicus. The data set can be described thus: Reduction in length ((control value = 126+/-9.1) of gastric lesions induced by ethanol was measured, after administration of 2.5 mg/kg po in rats. It counts as functional, Stomach.
In data set [10] the test system is Rattus norvegicus. The data set can be described thus: Reduction in length (control value = 126+/-9.1) of gastric lesions induced by ethanol was measured, after administration of 5 mg/kg po in rats. Type of data set: functional, Stomach.
For data set [11], the system named is Rattus norvegicus. In words: pH of the gastric juice (Control value = 1.44+/-0.01) of stomach content of pylorus ligated rats was measured (10 mg/kg po of the Compound was administered 1 hr before the pylorus ligation). As to conditions: in vivo. It counts as ADME, organism-based.
The test system of data set [12] is Rattus norvegicus. In words: Reduction in length (control value = 70.8+/-5.3) of gastric lesions induced by endomethacin was measured, after administration of 5 mg/kg po in rats. Type of data set: functional, Stomach.
The test system of data set [13] is Rattus norvegicus. The data set can be described thus: Reduction in length (control value = 124.3+/-7.8) of gastric lesions induced by ethanol was measured, after administration of 10 mg/kg po in indomethacin-pretreated rats. It counts as functional, Stomach.
For data set [14], the system named is Rattus norvegicus. The data set can be described thus: Reduction in length (control value = 169.6+/-1.9) of gastric lesions induced by ethanol was measured, after administration of 5 mg/kg po in NEM-pretreated rats. Type of data set: functional, Stomach.
The subject of data set [15] is Rattus norvegicus. In words: Acid output from the stomach (control value = 119.7+/-11.7) in pylorus ligated rats (5 mg/kg po of the Compound was administered 1 hr before the pylorus ligation). It counts as functional.
Data set [16] concerns Rattus norvegicus. The data set can be described thus: Volume of the gastric juice (Control value = 4.9+/-0.3) of stomach content of pylorus ligated rats was measured (10 mg/kg po of the Compound was administered 1 hr before the pylorus ligation). It counts as functional.
In data set [17] the test system is Rattus norvegicus. The data set can be described thus: Reduction in length (control value = 169.6+/-1.9) of gastric lesions induced by ethanol was measured, after administration of 10 mg/kg po in NEM-pretreated rats. Type of data set: functional, Stomach.
For data set [18], the system named is Rattus norvegicus. In words: Percent inhibition of gastric lesions induced by endomethacin was measured, after administration of 2.5 mg/kg po in rats. Type of data set: functional. As to conditions: Stomach.
The subject of data set [19] is Rattus norvegicus. The data set can be described thus: Acid output from the stomach (control value = 119.7+/-11.7) in pylorus ligated rats (10 mg/kg po of the Compound was administered 1 hr before the pylorus ligation). It counts as functional.
Data set [20] relates to Rattus norvegicus. In words: Reduction in length (control value = 70.8+/-5.3) of gastric lesions induced by endomethacin was measured, after administration of 2.5 mg/kg po in rats. Type of data set: functional, Stomach.
Data set [21] deals with Rattus norvegicus. The data set can be described thus: Percent inhibition of gastric lesions (length = 31.4+/-3.8) induced by ethanol was measured, after administration of 10 mg/kg po in L-NAME-pretreated rats. Type of data set: functional. Conditions: Stomach.
Data set [22] has as its system Rattus norvegicus. The data set can be described thus: Percent inhibition of gastric lesions (length = 61.5+/-4.4) induced by ethanol was measured, after administration of 10 mg/kg po in NEM-pretreated rats. As to conditions: Stomach. It counts as functional.
The subject of data set [23] is Rattus norvegicus. The data set can be described thus: pH of the gastric juice (Control value = 1.44+/-0.01) of stomach content of pylorus ligated rats was measured ( 5 mg/kg po of the Compound was administered 1 hr before the pylorus ligation). Type of data set: ADME, organism-based. Set-up: dose 5 mg/kg, route oral. As to conditions: in vivo.
The subject of data set [24] is Rattus norvegicus. In words: Percent inhibition of gastric lesions (length = 92.3+/-9) induced by ethanol was measured, after administration of 5 mg/kg po in NEM-pretreated rats. Type of data set: functional. Conditions: Stomach.
The test system of data set [25] is Rattus norvegicus. In words: Reduction in length (control value = 126.1+/-5.7) of gastric lesions induced by ethanol was measured, after administration of 5 mg/kg po in rats. It counts as functional, Stomach.
The test system of data set [26] is Rattus norvegicus. In words: Volume of the gastric juice (Control value = 4.9+/-0.3) of stomach content of pylorus ligated rats was measured (5 mg/kg po of the Compound was administered 1 hr before the pylorus ligation). Type of data set: functional.
Data set [27] relates to Rattus norvegicus. In words: Reduction in length (control value = 206.7+/-6.3) of gastric lesions induced by endomethacin was measured, after administration of 5 mg/kg po NEM-pretreated in rats. It counts as functional, Stomach.
Data set [28] concerns Rattus norvegicus. In words: Reduction in length (control value = 124.3+/-7.8) of gastric lesions induced by ethanol was measured, after administration of 5 mg/kg po in indomethacin-pretreated rats. Type of data set: functional, Stomach.
The test system of data set [29] is Rattus norvegicus. The data set can be described thus: Reduction in length (control value = 188.7+/-10.5) of gastric lesions induced by ethanol was measured, after administration of 5 mg/kg po in L-NAME-pretreated rats. Type of data set: functional, Stomach.
In data set [30] the test system is Rattus norvegicus. In words: Percent inhibition of gastric lesions (length = 102.2+/-8.1) induced by ethanol was measured, after administration of 5 mg/kg po in endomethacin pretreated rats. Conditions: Stomach. Type of data set: functional.
For data set [31], the system named is Rattus norvegicus. In words: Reduction in length (control value = 70.8+/-5.3) of gastric lesions induced by endomethacin was measured, after administration of 10 mg/kg po in rats. It counts as functional, Stomach.
In data set [32] the test system is Rattus norvegicus. In words: Reduction in length (control value = 126.1+/-5.7) of gastric lesions induced by ethanol was measured, after administration of 10 mg/kg po in rats. Type of data set: functional, Stomach.
Data set [33] deals with Rattus norvegicus. The data set can be described thus: Percent inhibition of gastric lesions (length = 15.3+/-2.9) induced by ethanol was measured, after administration of 10 mg/kg po in rats. It counts as functional. Conditions: Stomach.
In data set [34] the test system is Rattus norvegicus. The data set can be described thus: Percent inhibition of gastric lesions (length = 96.1+/-13.7) induced by ethanol was measured, after administration of 10 mg/kg po in endomethacin pretreated rats. Type of data set: functional. Conditions: Stomach.
For data set [35], the system named is Rattus norvegicus. The data set can be described thus: Percent inhibition of gastric lesions (length = 35.7+/-2.3) induced by ethanol was measured, after administration of 5 mg/kg po in rats. Conditions: Stomach. It counts as functional.
For data set [36], the system named is Rattus norvegicus. In words: Reduction in length (control value = 126.1+/-5.7) of gastric lesions induced by ethanol was measured, after administration of 2.5 mg/kg po in rats. It counts as functional, Stomach.
The subject of data set [37] is Rattus norvegicus. The data set can be described thus: Percent inhibition of gastric lesions (length = 60.8+/-11.6) induced by ethanol was measured, after administration of 5 mg/kg po in L-NAME-pretreated rats. Type of data set: functional. Conditions: Stomach.
Data set [38] relates to Rattus norvegicus. In words: Reduction in length ((control value = 126+/-9.1)of gastric lesions induced by ethanol was measured, after administration of 2.5 mg/kg po in rats. Type of data set: functional, Stomach.
The test system of data set [39] is Rattus norvegicus. The data set can be described thus: Reduction in length (control value = 138+/-12.1) of gastric lesions induced by ethanol was measured, after administration of 10 mg/kg po in rats. It counts as functional, Stomach.
Data set [40] concerns Rattus norvegicus. In words: Reduction in length (control value = 62.8+/-12.4) of gastric lesions induced by endomethacin was measured, after administration of 10 mg/kg po in rats. Type of data set: functional, Stomach.

Take `C[C@@H]1CC[C@@]2(OC1)O[C@H]1C[C@H]3[C@@H]4CC=C5C[C@@H](O)CC[C@]5(C)[C@H]4CC[C@]3(C)[C@H]1[C@@H]2C` [DISOGENIN]: the values for the inhibition in vivo at 10 mg/kg in data set [1] and in [3] were 28.1% and 8.6%, respectively. The figures for the Length in data set [2] and in [4] were 49.9 mm and 76.9 mm, respectively.
With `C[C@H](CCC1(O)OC2CC3C4CC=C5C[C@@H](O[C@@H]6O[C@H](CO)C(O[C@@H]7O[C@@H](CO)[C@H](O)[C@H]7O)[C@@H](O)[C@H]6O[C@@H]6O[C@@H](C)[C@H](O)[C@@H](O)[C@H]6O)CC[C@]5(C)C4CC[C@]3(C)C2[C@@H]1C)CO[C@@H]1O[C@H](CO)[C@@H](O)[C@H](O)[C@H]1O` (some centres not stated) [PARISAPONIN I], the Length in data set [5] came out at 82.5 mm; in [9] it was 114 mm; in data set [10], 106 mm. Besides, the values for the inhibition in vivo at 5 mg/kg in data set [6] and in [8] were 7.2% and 15.6%, respectively. This compound displayed an inhibition in vivo at 2.5 mg/kg in data set [7] of 9.2%.
As to `C[C@@H]1CC[C@@]2(OC1)OC1C[C@H]3[C@@H]4CC=C5C[C@@H](O[C@@H]6O[C@H](CO)[C@@H](O[C@@H]7O[C@@H](CO)[C@H](O)[C@H]7O)[C@H](O)[C@H]6O[C@@H]6O[C@@H](C)[C@H](O)[C@@H](O)[C@H]6O)CC[C@]5(C)[C@H]4CC[C@]3(C)C1[C@@H]2C` (some centres not stated), the pH in data set [11] worked out at 1.48; in data set [23], 1.47. The Length in data set [12] is 23.2 mm; in data set [13], 96.1 mm; in data set [14], 92.3 mm; in [17], 31.4 mm; in data set [20] it was 27.9 mm; in data set [25] it was 46.5 mm. Further, the Length in data set [27] was 61.5 mm; in data set [28], 102 mm; in data set [29], 60.8 mm; in [31], 10.9 mm; in [32], 11.4 mm; in data set [36], 76.1 mm. Besides, the Acid output came out at 100.5 u equiv hr-1 in data set [15] and 82.1 u equiv hr-1 in data set [19]. In addition, the Volume in [16] is listed as 3.6 ml 4hr-1; in [26] it was 4.4 ml 4hr-1. Also, the results for the inhibition in vivo at 2.5 mg/kg in data set [18] and in data set [7] were 60.6% and 39.7%, respectively. Besides, the inhibition in vivo at 10 mg/kg is 83.4% in data set [21]; 63.7% in [22]; 91% in [1]; 84.6% in data set [3]; 86.9% in [33]; 22.7% in [34]. In addition, the inhibition in vivo at 5 mg/kg came out at 45.6% in data set [24]; 67.2% in data set [6]; 63.1% in data set [8]; 17.8% in [30]; 69.3% in data set [35]; 67.8% in data set [37].
As for `C[C@H](CCC1(O)OC2CC3C4CC=C5C[C@@H](O[C@@H]6O[C@H](CO)[C@@H](O)[C@H](O)[C@H]6O[C@@H]6O[C@@H](C)[C@H](O)[C@@H](O)[C@H]6O)CC[C@]5(C)C4CC[C@]3(C)C2[C@@H]1C)CO[C@@H]1O[C@H](CO)[C@@H](O)[C@H](O)[C@H]1O` (some centres not stated) [TRIGOFOENOSIDE A], the Length in [38] is 93 mm; in [5], 74.7 mm; in data set [10] it was 111 mm. Also, the inhibition in vivo at 5 mg/kg in [6] stood at 16%; in [8], 11.7%. Moreover, the inhibition in vivo at 2.5 mg/kg in data set [7] is 26.2%.
On to `CC1CC[C@@]2(OC1)OC1CC3C4CC=C5C[C@@H](O)CC[C@]5(C)C4CC[C@]3(C)[C@@]1(O)[C@@H]2C` (some centres not stated), for which the Length in data set [39] came out at 134 mm; in data set [40], 67.1 mm. For the same compound, the results for the inhibition in vivo at 10 mg/kg in data set [1] and in data set [3] were 2.5% and 6.8%, respectively.
